Like-named read-outs stand apart in the source and are kept apart here.
System: Mycosphaerella graminicola; Anamorph: Septoria tritici; Bayer Code SEPTTR
Assay: Leaf blotch of wheat, foliar fungicide treatment, one day protectant (1DP) or three day curative (3DC)
Type: in vivo, Septoria tritici on wheat plants (variety Yuma)
Settings: Zymoseptoria tritici, percent control rating; for pest or weed control at 100 ppm: read-out: SEPTTR 3DC 100 ppm
[1] = 24 h, one day protectant (1DP), 25 ppm (first 1DP column), read-out: SETTTR 1DP 25 ppm
[2] = 24 h, one day protectant (1DP), 25 ppm as printed (second 1DP column), read-out: SETTTR 1DP 25 ppm
[3] = 72 h, three day curative (3DC), 25 ppm, read-out: SEPTTR 3DC 25 ppm

| SMILES | pest or weed control at 25 ppm [1] [%] | pest or weed control at 25 ppm [2] [%] | pest or weed control at 25 ppm [3] [%] | pest or weed control at 100 ppm (72 h, three day curative (3DC)) [%] |
| --- | --- | --- | --- | --- |
| Fc1cnc(OCc2ccccc2)nc1NNc1ccc(Cl)c(Cl)c1 [Compound 1037] | 0 to 25 | 26 to 50 | 0 to 25 | 0 to 25 |
| Fc1cnc(OCc2ccccc2)nc1NNc1nccc(C(F)(F)F)n1 [Compound 1038] | 0 to 25 | 0 to 25 | 0 to 25 | 0 to 25 |
| Cc1ccc(COc2ncc(F)c(NNc3ccccc3F)n2)cc1 [Compound 1039] | 0 to 25 | 0 to 25 | 0 to 25 | 0 to 25 |
| Cc1ccc(COc2ncc(F)c(NNc3ccc(Cl)nn3)n2)cc1 [Compound 1040] | 0 to 25 | 0 to 25 | 0 to 25 | 0 to 25 |
| Cc1ccc(COc2ncc(F)c(NNc3nccc(C(F)(F)F)n3)n2)cc1 [Compound 1041] | 0 to 25 | 0 to 25 | 0 to 25 | 0 to 25 |
| Fc1ccc(COc2ncc(F)c(NNc3ccccc3F)n2)cc1 [Compound 1042] | 0 to 25 | 0 to 25 | 0 to 25 | 26 to 50 |
| Fc1ccc(COc2ncc(F)c(NNc3nccc(C(F)(F)F)n3)n2)cc1 [Compound 1043] | 0 to 25 | 0 to 25 | 0 to 25 | 0 to 25 |
| Fc1ccc(COc2ncc(F)c(NNc3nc4ccccc4s3)n2)cc1 [Compound 1044] | 0 to 25 | 0 to 25 | 0 to 25 | 0 to 25 |
| COc1cccc(COc2ncc(F)c(NNc3nccc(C(F)(F)F)n3)n2)c1 [Compound 1045] | 0 to 25 | 0 to 25 | 0 to 25 | 0 to 25 |
| COc1cccc(COc2ncc(F)c(NNc3nc4ccccc4s3)n2)c1 [Compound 1046] | 0 to 25 | 0 to 25 | 0 to 25 | 0 to 25 |
| Fc1ccc(COc2ncc(F)c(NNc3cccc(F)n3)n2)cc1 [Compound 1047] | 0 to 25 | 0 to 25 | 26 to 50 | 26 to 50 |
| COc1ncc(F)c(NNc2ccc(Cl)nn2)n1 [Compound 1048] | 0 to 25 | 0 to 25 | 0 to 25 | 0 to 25 |
| COc1ncc(F)c(NNc2nccc(C(F)(F)F)n2)n1 [Compound 1049] | 0 to 25 | 0 to 25 | 26 to 50 | 26 to 50 |
| COc1ncc(F)c(NNc2ccccn2)n1 [Compound 1050] | 0 to 25 | 0 to 25 | 0 to 25 | 26 to 50 |
| COc1ncc(F)c(NNc2ncnc3ccccc23)n1 [Compound 1051] | 0 to 25 | 0 to 25 | 26 to 50 | 0 to 25 |
| COc1ncc(F)c(NNc2ccccc2OC)n1 [Compound 1052] | 0 to 25 | 0 to 25 | 0 to 25 | 0 to 25 |
| COc1ncc(F)c(NOCc2ccco2)n1 [Compound 1053] | 0 to 25 | 0 to 25 | 0 to 25 | 0 to 25 |
| COc1ncc(F)c(N(O)Cc2ccc(Cl)nc2)n1 [Compound 1054] | 0 to 25 | 0 to 25 | 0 to 25 | 0 to 25 |
| COc1ncc(F)c(NNc2c(Cl)cccc2Cl)n1 [Compound 1055] | 0 to 25 | 0 to 25 | 0 to 25 | 0 to 25 |
| CNN(C)c1nc(OC)ncc1F [Compound 1056] | 0 to 25 | 0 to 25 | 26 to 50 | 26 to 50 |
| CONc1nc(OC)ncc1F [Compound 1058] | 0 to 25 | 0 to 25 | 0 to 25 | 0 to 25 |
| C=CCOc1ncc(F)c(NN)n1 [Compound 1059] | 0 to 25 | 0 to 25 | 0 to 25 | 26 to 50 |
| C=CCOc1ncc(F)c(N/N=C(\C)c2ccc(F)cc2)n1 [Compound 1060] | 0 to 25 | 0 to 25 | 0 to 25 | 0 to 25 |

Reference: patent publication US9204653B2, “5-fluoro pyrimidine derivatives” (DOW AGROSCIENCES LLC, priority 2008, dated 2015)
